Values of other authors as cited in patent publication US20040120916A1, “Contact lens care compositions, methods of use and preparation which protect ocular tissue membrane integrity” (ADVANCED MEDICAL OPTICS, INC., priority 2002, published 2004).

Tests used:
[1] = tested on: rat large-intestinal tissue
[2] = tested on: lipopolysaccharide (LPS)-intoxicated rats; details: LPS rat stomachs irrigated with acid solution
[3] = tested on: rat large-intestinal tissue; details: decrease caused by sodium laurate
[4] = tested on: human corneal epithelial cells; details: 450 mOsm/kg hypertonic medium; 1 mM taurine (0.0125 w/v %)

NCCS(=O)(=O)O [taurine]
release of histamine enhanced by sodium laurate [1]: suppress the release of histamine
ulcerogenic parameters including mucosal histamine concentrations [2]: dose-dependent attenuations
transepithelial electrical resistance, a measure of cell membrane integrity [3]: significantly suppressed the decrease
cell survival [4]: significantly increased cell survival
